# Test results taken from patent US20060286575A1, “MCL-1 quadruplex nucleic acids and uses thereof” (Cylene Pharmaceuticals, Inc., priority 2005, published 2006).
# Experiments:
# [1] = system: MCL-1 wildtype quadruplex sequence (MCL-wt); test: Competition assay (Taq polymerase stop reaction as reporter), competitor MCL-1 wildtype quadruplex; assay type: binding; conditions: test compound at its IC50 concentration
# Source text: (§1) An example of an affinity competition assay, described hereafter, is useful for determining the relative binding affinities of a test molecule between different types of nucleic acid structures, using the ability of the test molecule to bind and stabilize a specific G-quadruplex structure in a Taq polymerase stop reaction utilized as a reporter system.
# (§2) The assay first involves establishing the IC50 of a test molecule in the polymerase arrest assay described above using the fluorescent-labeled oligonucleotide primer. The IC50 concentration is defined as the concentration of test molecule required that yields a 1:1 ratio of quadruplex arrest to full-length product.
# (§3) A competitor nucleic acid sequence is titrated into the reaction such that each individual reaction contains the test compound at it's IC50 concentration and an increasing concentration of competitor nucleic acid (increasing from zero). The competitor nucleic acid, may be a short duplex or single strand oligonucleotide, a plasmid DNA sequence, an RNA sequence, or a nucleic acid sequence capable of forming a secondary structure, such as a G-quadruplex. […] The decrease in quadruplex arrest product, relative to the full-length product is measured as a function of concentration of added competitor nucleic acid. Thus the relative binding affinities to different competitor nucleic acid structures can be determined graphically. […]
# [2] = system: DAOY medulloblastoma cells; test: Apoptosis induction by Annexin V staining in DAOY cells; assay type: cell-based
# Experimental: (§4) FIG. 4 depicts the induction of apoptosis following treatment with CX-3543.
# (§5) D556 medulloblastoma cells were exposed to 1 uM Compound A-1 for 19 hours. […] The level of apoptosis induced in D556 as measured by Annexin V staining was about 5.5-fold higher than in DMSO-treated cells, as compared to about 1.9-fold in DAOY cells. The relative amount of down-regulation of MCL-1 (approximately 14-fold compared to about 3.2-fold) correlates with the relative level of apoptosis induction (about 5.5-fold as compared to about 1.9-fold).
# MCL-1 mRNA [3] = test: MCL-1 mRNA expression in D556 medulloblastoma cells (Affymetrix U133+2.0 gene chip); assay type: cell-based; conditions: 19 hours
# Experimental: (§6) FIG. 3 illustrates Mcl-1 mRNA expression levels in medulloblastoma cells treated with CX-3543. The cells were treated at 0.1 and 1 μM CX-3543 for 19 hours, as measured by Affymetrix U133+2.0 47,000 gene chip.
# as §5
# MCL-1 mRNA [4] = test: MCL-1 mRNA expression in DAOY medulloblastoma cells; assay type: cell-based; conditions: 1 uM, 19 hours
# Experimental: as §6, §5
# MCL-1 protein = MCL-1 protein levels in cells contacted with compound; assay type: cell-based; conditions: expected from the mRNA and apoptosis results
# Experimental: as §5
# [5] = system: extended MCL-1 sequence (insert 58); test: Competition assay (Taq polymerase stop reaction as reporter), competitor extended MCL-1 sequence insert 58; assay type: binding; conditions: FIG. 2
# Source text: as §1, §2, §3
# [6] = system: D556 medulloblastoma cells; test: Apoptosis induction by Annexin V staining in D556 cells; assay type: cell-based
# Experimental: as §4, §5
# [7] = system: extended MCL-1 sequence (insert 46); test: Competition assay (Taq polymerase stop reaction as reporter), competitor extended MCL-1 sequence insert 46; assay type: binding; conditions: FIG. 2
# Source text: as §1, §2, §3
smiles,measurement,setting,value
CN1CCC[C@H]1CCNC(=O)c1cn2c3c(c(N4CCC(c5cnccn5)C4)c(F)cc3c1=O)Oc1cc3ccccc3cc1-2 (stereo partly shown) [Compound A-1],binding to the MCL-1 sequence shown in FIG. 2,[1],binds
same,"level of apoptosis induced, relative to DMSO-treated cells",[2],about 1.9 fold
same,rank of Mcl-1 among genes with statistically significant change relative to DMSO control,"MCL-1 mRNA [3]; D556 cells, 1 μM, out of more than 500 genes",eighth most highly down-regulated gene
same,MCL-1 mRNA down-regulation,"MCL-1 mRNA [3]; D556 medulloblastoma cells, 1 uM",approximately 14 fold
same,MCL-1 mRNA down-regulation,MCL-1 mRNA [4],approximately 3.2 fold
same,MCL-1 protein levels,MCL-1 protein,decreased
same,binding to extended MCL-1 sequence insert 58 compared to the wildtype sequence,[5],comparably higher
same,"level of apoptosis induced, relative to DMSO-treated cells",[6]; D556 cells,about 5.5 fold
same,"apoptosis induction, D556 compared with DAOY",[6]; FIG. 4,greater effect of CX-3543 on D556 than on DAOY
same,binding to extended MCL-1 sequence insert 46 compared to the wildtype sequence,[7],comparably higher
